Results published in ChEMBL document CHEMBL5143564, “PES derivative PESA is a potent tool to globally profile cellular targets of PES” (Bioorg Med Chem Lett, 2022).
The source made the active and inactive calls. The rule behind the calls is not given here.

What was measured:
DOHH-2 = assay: Induction of autophagy in human DOHH-2 cells assessed as change in transformation of LC3B1 to LC3B2 expression at 8 uM measured after 4 to 24 hrs by Western blot analysis; assay type: functional, cell-based; details: time 4-24 hrs
[1] = target: Tubulin beta (Homo sapiens) (UniProt P68371+Q9H4B7+Q13509+P04350+Q3ZCM7+P07437+Q13885+Q9BVA1+Q9BUF5+A6NNZ2); assay: Binding affinity to beta-tubulin in human MDA-MB-453 cells measured after 6 hrs by pull-down assay; assay type: cell-based; details: dose <= 20.0 µM, DDE = dose-dependent effect
[2] = target: T1, Protein disulfide-isomerase A4 (Homo sapiens) (UniProt P13667); assay: Binding affinity to PDIA4 in human MDA-MB-453 cells measured after 6 hrs by pull-down assay; assay type: cell-based; details: dose <= 20.0 µM, DDE = dose-dependent effect
T1 sequence (whole entry): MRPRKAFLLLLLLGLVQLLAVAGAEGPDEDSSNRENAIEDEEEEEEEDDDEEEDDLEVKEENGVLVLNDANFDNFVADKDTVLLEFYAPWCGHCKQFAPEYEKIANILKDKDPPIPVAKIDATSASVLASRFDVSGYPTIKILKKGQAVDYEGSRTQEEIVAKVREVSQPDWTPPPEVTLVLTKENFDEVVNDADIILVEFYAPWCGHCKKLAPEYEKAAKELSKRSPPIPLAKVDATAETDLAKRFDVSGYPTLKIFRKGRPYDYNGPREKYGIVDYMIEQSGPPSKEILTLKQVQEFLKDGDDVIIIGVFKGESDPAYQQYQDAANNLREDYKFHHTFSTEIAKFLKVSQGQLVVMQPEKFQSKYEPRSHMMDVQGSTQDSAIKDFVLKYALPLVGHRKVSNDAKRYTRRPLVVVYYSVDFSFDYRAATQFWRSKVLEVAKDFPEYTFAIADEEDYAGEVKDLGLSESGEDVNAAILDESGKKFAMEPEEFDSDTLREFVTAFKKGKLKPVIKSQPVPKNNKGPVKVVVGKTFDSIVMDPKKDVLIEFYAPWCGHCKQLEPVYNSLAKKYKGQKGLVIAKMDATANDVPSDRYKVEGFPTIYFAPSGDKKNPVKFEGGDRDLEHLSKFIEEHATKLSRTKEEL

[3] = target: T2, Glutathione S-transferase omega-1 (Homo sapiens) (UniProt P78417); assay: Binding affinity to GSTO1 in human MDA-MB-453 cells measured after 6 hrs by pull-down assay; assay type: cell-based; details: dose <= 20.0 µM, DDE = dose-dependent effect
T2 sequence (whole entry): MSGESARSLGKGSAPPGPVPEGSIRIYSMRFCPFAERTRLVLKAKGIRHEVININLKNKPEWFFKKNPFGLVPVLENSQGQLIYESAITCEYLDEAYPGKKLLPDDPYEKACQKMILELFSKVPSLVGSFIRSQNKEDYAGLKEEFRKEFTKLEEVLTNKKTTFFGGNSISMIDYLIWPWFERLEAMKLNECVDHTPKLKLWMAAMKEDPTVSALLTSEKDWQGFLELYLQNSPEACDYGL

[4] = target: Tubulin alpha (Homo sapiens) (UniProt P0DPH7+P68366+Q71U36+P68363+Q9BQE3+Q6PEY2+A6NHL2+Q9NY65); assay: Binding affinity to alpha-tubulin in human MDA-MB-453 cells measured after 6 hrs by pull-down assay; assay type: cell-based; details: dose <= 20.0 µM, DDE = dose-dependent effect
Homo sapiens [5] = organism: Homo sapiens; assay: Binding affinity to ADP-bound full-length human HSP70 assessed as Cys603 adduct formation by size exclusion chromatography
[6] = target: T3, Protein disulfide-isomerase A6 (Homo sapiens) (UniProt Q15084); assay: Binding affinity to PDIA6 in human MDA-MB-453 cells measured after 6 hrs by pull-down assay; assay type: cell-based; details: dose <= 20.0 µM, DDE = dose-dependent effect
T3 sequence (whole entry): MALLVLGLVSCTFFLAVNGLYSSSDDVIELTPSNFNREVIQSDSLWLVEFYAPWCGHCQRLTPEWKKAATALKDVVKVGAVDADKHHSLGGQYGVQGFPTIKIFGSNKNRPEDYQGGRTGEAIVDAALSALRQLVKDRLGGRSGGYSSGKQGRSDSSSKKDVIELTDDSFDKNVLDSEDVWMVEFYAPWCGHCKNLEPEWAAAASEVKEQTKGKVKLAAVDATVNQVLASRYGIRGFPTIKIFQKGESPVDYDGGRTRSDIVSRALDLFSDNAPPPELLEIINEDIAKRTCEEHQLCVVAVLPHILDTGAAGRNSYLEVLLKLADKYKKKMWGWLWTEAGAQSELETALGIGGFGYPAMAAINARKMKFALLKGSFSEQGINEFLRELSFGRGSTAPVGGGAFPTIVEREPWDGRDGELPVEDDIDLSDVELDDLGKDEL

Homo sapiens [7] = organism: Homo sapiens; assay: Binding affinity to human HSP70 SBDalpha domain (537 to 610 residues) C574S mutant assessed as Cys603 adduct formation by size exclusion chromatography
[8] = target: T4, Peroxiredoxin-5, mitochondrial (Homo sapiens) (UniProt P30044); assay: Binding affinity to PRDX5 in human DOHH-2 cells measured after 6 hrs by pull-down assay; assay type: cell-based; details: DDE = dose-dependent effect
T4 sequence (whole entry): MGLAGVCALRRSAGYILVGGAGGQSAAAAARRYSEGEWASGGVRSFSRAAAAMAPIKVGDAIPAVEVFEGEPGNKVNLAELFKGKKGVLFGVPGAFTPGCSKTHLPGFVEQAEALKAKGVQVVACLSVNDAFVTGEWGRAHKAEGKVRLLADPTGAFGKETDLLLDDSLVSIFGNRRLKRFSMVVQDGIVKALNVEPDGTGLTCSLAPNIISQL

[9] = target: Glutathione S-transferase P (Homo sapiens) (UniProt P09211); assay: Binding affinity to GSTP1 in human DOHH-2 cells measured after 6 hrs by pull-down assay; assay type: cell-based; details: DDE = dose-dependent effect
Plastin-2 (Homo sapiens) = target: T5, Plastin-2 (Homo sapiens) (UniProt P13796); assay: Binding affinity to plastin-2 in human DOHH-2 cells by MS analysis; assay type: cell-based
T5 sequence (whole entry): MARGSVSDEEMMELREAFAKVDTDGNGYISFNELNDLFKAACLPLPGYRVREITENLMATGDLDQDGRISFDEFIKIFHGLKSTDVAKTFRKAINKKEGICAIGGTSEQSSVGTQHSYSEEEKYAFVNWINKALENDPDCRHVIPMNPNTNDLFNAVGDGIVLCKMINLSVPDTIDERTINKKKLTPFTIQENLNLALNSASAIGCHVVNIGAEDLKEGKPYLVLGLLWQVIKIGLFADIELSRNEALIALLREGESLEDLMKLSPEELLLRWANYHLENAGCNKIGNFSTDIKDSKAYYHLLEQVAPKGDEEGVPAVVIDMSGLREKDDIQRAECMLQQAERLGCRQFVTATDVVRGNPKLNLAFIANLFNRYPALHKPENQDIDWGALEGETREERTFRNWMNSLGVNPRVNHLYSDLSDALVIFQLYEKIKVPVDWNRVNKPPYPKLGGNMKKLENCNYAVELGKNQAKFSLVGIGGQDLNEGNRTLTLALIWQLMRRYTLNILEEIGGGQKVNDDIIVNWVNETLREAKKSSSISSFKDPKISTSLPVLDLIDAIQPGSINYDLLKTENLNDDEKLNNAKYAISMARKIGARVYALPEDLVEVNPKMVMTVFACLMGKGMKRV

Jurkat = assay: Cytotoxicity against human Jurkat T cells up to 20 uM measured after 24 hrs; assay type: functional, cell-based

Sequence of Glutathione S-transferase P (Homo sapiens) (P09211 2-210 limits assumed): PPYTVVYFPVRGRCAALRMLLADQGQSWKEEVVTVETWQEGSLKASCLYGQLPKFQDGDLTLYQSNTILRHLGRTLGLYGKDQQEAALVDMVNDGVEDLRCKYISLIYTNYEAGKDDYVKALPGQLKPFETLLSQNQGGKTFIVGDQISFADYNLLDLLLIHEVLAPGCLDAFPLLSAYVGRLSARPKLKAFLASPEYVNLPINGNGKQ

- Activity [1]: Dde
- Activity [2]: Dde
- Activity [3]: Dde
- Activity [4]: Dde
- Activity (Homo sapiens [5]): Active
- Activity [6]: Dde
- Activity (Homo sapiens [7]): Active
- Activity [8]: Dde
- Activity [9]: Dde
- Activity (Plastin-2 (Homo sapiens)): Active
Structure (SMILES): C#Cc1cccc(C#CS(N)(=O)=O)c1
- Activity (DOHH-2): Active
- Activity (Jurkat): Active
